ChEMBL document CHEMBL1201862, “PubChem BioAssay data set” (2004)
Activity calls are given as the source filed them.

Key:
[1] = molecular target: CAAX prenyl protease 2 (Saccharomyces cerevisiae S288c, UniProt Q03530); format: biochemical
[2] = test system: Vero; test: cytotoxicity of synthesized analogs in Vero 76, SAR follow-up, cytotoxicity control for West Nile virus antiviral project, Vero 76 cells (AID 2414); format: functional; conditions: Chlorocebus sabaeus
[3] = test system: Vero; test: cytotoxicity of synthesized analogs in Vero cells, SAR follow-up, cytotoxicity control for West Nile virus antiviral project, cell-based, set II (AID 2402); format: functional; conditions: Chlorocebus sabaeus
[4] = test system: Vero; test: Vero E6 cell cytotoxicity, SAR follow-up, cytotoxicity control for West Nile virus antiviral project, synthesized analogs (AID 2244); format: functional; conditions: Chlorocebus sabaeus
[5] = A Cell Based Assay for the Identification of Probe candidate Compounds with Anti- Venezuelan Equine Encephalitis virus. [Related pubchem assays: 2409, 2419, 1621, 2238, 2405, 2024, 2065, 2402, 2414, 1635, 1650, 2244 ]; format: functional
[6] = test system: Vero; test: West Nile virus CPE inhibition, SAR follow-up, cell-based, synthesized analogs (AID 2238); format: functional; conditions: Chlorocebus sabaeus
[7] = test system: Vero; test: West Nile virus cytopathic effect inhibition, cell-based (AID 2419); format: functional; conditions: Chlorocebus sabaeus
[8] = inhibitors of intracellular T. cruzi replication, confirmation, NIH3T3 host cells, beta-gal luminescence (AID 2044); format: functional, cell-based;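 further: intracellular parasites grown in NIH/3T3 mouse fibroblasts as host cells; luminescent beta-galactosidase reporter signal from transgenic T. cruzi replicating inside host cells; inhibitors lower the luminescence signal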
[9] = cytotoxicity toward NIH3T3 fibroblasts, dose response, counter-screen, cell-based, ATP luminescence, mouse fibroblasts (AID 2010); format: functional;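 further: cells exposed to compound for about 90 hours before reading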
[10] = molecular target: T1, Dual specificity protein phosphatase 3 (Homo sapiens, UniProt P51452); test: SAR VHR1 absorbance Assay for In Vitro dose response studies. [Related pubchem assays (depositor defined):AID1654, AID1661, AID1878, AID1992, AID2004]
[11] = molecular target: T1, Dual specificity protein phosphatase 3; test: SAR VHR1 Fluorescent Assay for In Vitro dose response studies. [Related pubchem assays (depositor defined):AID1654, AID1661, AID1878, AID1992, AID2004, AID2070, AID2085]; format: functional
[12] = molecular target: T2, Tyrosine-protein phosphatase non-receptor type 7 (Homo sapiens, UniProt P35236); test: redox-dependent HePTP inhibition, mechanism study, biochemical, fluorescence (AID 2068); format: functional
T2 sequence (P35236 whole entry): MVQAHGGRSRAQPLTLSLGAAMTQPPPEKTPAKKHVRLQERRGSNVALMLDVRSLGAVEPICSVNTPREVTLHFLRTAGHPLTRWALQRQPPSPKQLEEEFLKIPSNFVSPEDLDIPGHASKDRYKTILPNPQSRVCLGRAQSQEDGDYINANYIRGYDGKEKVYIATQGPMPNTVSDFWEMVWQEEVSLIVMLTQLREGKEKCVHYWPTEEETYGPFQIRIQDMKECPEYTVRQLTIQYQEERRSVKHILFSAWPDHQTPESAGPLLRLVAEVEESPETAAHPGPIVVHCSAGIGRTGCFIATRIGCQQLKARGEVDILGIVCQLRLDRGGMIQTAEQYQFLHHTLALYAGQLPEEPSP

[13] = molecular target: T3, Dual specificity protein phosphatase 6 (Rattus norvegicus, UniProt Q64346); test: SAR analysis of inhibitors of MKP-3 - Set 2. [Related pubchem assays (depositor defined):AID1055, AID1661, AID425, AID553, AID566]; format: functional
T3 sequence (Q64346 whole entry): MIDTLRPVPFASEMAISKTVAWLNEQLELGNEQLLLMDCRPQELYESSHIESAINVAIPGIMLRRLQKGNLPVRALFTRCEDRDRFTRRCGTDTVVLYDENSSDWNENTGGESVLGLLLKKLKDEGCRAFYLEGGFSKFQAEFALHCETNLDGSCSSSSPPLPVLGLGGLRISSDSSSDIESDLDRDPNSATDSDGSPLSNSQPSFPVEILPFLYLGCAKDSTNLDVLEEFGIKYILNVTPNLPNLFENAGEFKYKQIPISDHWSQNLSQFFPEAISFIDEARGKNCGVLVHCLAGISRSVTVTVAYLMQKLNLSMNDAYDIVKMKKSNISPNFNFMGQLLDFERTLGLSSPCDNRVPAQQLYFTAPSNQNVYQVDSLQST

[14] = molecular target: T2, Tyrosine-protein phosphatase non-receptor type 7; test: HePTP (PTPN7) phosphatase inhibitor potency, SAR follow-up, biochemical, set 2 (AID 449736); format: functional
[15] = molecular target: T2, Tyrosine-protein phosphatase non-receptor type 7; test: SAR analysis of chemical inhibitors of HePTP using a Fluorescent assay - Set 2. [Related pubchem assays (depositor defined):AID1059, AID1077, AID1661, AID2085, AID521]; format: functional
[16] = molecular target: T1, Dual specificity protein phosphatase 3; test: SAR VHR1 Fluorescent Assay for In Vitro dose response studies Set 2. [Related pubchem assays (depositor defined):AID1654, AID1661, AID1878]; format: functional
[17] = molecular target: T3, Dual specificity protein phosphatase 6; format: functional
[18] = molecular target: T4, Mucolipin-3 (Homo sapiens, UniProt Q8TDD5); test: Dose response cell-based high-throughput screening assay for agonists of the transient receptor potential channel ML3 (TRPML3). [Related pubchem assays: 1526, 1424, 1448 ]; format: functional
T4 sequence (Q8TDD5 whole entry): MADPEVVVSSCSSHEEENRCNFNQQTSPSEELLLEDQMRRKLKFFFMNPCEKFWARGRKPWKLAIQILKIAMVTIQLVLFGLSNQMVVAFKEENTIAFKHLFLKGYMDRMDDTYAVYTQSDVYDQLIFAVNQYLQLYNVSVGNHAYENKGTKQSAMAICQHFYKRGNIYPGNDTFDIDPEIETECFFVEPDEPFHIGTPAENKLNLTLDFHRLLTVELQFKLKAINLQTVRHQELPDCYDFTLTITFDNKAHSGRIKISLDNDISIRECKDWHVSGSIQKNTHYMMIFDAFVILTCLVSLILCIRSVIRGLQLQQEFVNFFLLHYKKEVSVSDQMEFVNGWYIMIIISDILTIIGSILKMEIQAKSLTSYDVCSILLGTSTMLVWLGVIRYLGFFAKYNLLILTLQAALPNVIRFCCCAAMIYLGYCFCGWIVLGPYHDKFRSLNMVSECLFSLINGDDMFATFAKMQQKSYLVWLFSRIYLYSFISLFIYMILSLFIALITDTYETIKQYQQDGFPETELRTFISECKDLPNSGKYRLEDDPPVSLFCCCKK

[19] = microbe, parasite or virus in culture; format: functional; conditions: Mycobacterium tuberculosis
[20] = molecular target: Ion channel NompC (Danio rerio, UniProt Q7T1G6); test: Fluorescence counterscreen assay for TRPML3 agonists: dose response cell-based high-throughput screening assay to identify agonists of the transient receptor potential channel N1 (TRPN1). [Related pubchem assays: 1526, 1424, 1448 ]; format: functional
[21] = molecular target: T5, Heat shock factor protein 1 (Mus musculus, UniProt P38532); test: HSF1 potentiators in luciferase reporter cells, confirmation, cell-based, NIH3T3, luminescence, dose retest (AID 435004); format: functional;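 further: stress induced by proteasome inhibitor MG132 added 30 min after compound; luciferase reporter driven by HSF1 response element in NIH3T3 cells; actives raise luminescence as potentiators of the MG132 stress response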
T5 sequence (P38532 whole entry): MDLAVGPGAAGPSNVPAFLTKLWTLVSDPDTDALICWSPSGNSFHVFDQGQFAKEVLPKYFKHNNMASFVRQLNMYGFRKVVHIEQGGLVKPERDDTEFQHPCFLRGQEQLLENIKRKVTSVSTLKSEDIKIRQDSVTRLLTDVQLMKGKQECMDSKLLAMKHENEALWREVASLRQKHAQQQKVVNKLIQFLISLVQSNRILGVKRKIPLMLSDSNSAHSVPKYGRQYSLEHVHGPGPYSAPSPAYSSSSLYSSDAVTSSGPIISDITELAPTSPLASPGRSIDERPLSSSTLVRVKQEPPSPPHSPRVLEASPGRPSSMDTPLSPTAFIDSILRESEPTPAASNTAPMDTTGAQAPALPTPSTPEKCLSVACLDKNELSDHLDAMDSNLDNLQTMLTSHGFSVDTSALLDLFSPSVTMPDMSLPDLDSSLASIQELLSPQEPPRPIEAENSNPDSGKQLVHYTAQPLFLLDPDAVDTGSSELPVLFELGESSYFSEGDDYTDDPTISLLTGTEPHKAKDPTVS

[22] = molecular target: Type-1 angiotensin II receptor (Homo sapiens, UniProt P30556); test: AT1 receptor agonists, dose response, selectivity assay for APJ receptor agonist project, cell-based, uHTS hits (AID 488865); format: functional;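 further: beta-arrestin recruitment to AT1 measured by enzyme fragment complementation luminescence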
[23] = molecular target: Heat shock protein HSP 90-alpha (Homo sapiens, UniProt P07900); format: functional, organism-based
[24] = molecular target: T6, High affinity choline transporter 1 (Homo sapiens, UniProt Q9GZV3); test: CHT inhibitors, dose response, cell-based, 5-point CRC, membrane potential dye (AID 504840); format: functional
T6 sequence (Q9GZV3 whole entry): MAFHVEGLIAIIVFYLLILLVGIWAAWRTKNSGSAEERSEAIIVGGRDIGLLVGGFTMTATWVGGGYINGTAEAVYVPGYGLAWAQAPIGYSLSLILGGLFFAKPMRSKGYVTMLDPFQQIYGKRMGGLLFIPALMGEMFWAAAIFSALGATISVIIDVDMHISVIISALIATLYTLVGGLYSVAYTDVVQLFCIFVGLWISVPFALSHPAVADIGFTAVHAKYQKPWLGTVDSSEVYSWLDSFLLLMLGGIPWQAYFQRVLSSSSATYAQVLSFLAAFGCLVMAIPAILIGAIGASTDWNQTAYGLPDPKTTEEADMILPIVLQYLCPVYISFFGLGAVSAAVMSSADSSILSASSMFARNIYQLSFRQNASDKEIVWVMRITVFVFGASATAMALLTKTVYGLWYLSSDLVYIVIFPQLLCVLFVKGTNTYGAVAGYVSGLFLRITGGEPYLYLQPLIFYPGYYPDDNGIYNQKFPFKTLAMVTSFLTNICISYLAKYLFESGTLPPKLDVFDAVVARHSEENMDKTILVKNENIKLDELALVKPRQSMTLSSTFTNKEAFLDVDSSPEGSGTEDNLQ

[25] = test system: INS1; test: beta cell apoptosis inhibitors, cytokine rescue, dose response, luminescence, retest (AID 449756); format: functional, cell-based; conditions: Rattus norvegicus;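 further: cell death triggered by IL-1 beta plus TNF-alpha plus IFN-gamma mixture; protective hits raise ATP signal compared with cytokine alone wells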
[26] = Fluorescence-based cell-based high throughput dose response assay for inhibitors of the interaction of nucleotide-binding oligomerization domain containing 2 (NOD2) and the receptor-interacting serine-threonine kinase 2 (RIPK2).; format: functional; conditions: Homo sapiens
[27] = molecular target: Beta Lactamase (Pseudomonas aeruginosa, UniProt Q932Y6); test: beta-lactamase reporter inhibitor potency, dose response, artefact control for NOD2-RIPK2 interaction inhibitor project, BLA reporter cells, FRET fluorescence (AID 651552); format: functional, cell-based
[28] = molecular target: Paired box protein Pax-8 (Homo sapiens, UniProt Q06710); test: inhibitors of PAX8-driven TPO luciferase reporter, dose response, RMG-I cells, cherry-pick (AID 687027); format: functional, cell-based;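 further: luciferase reporter driven by Pax8 target thyroperoxidase promoter measured by SteadyGlo luminescence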
[29] = molecular target: Glyceraldehyde-3-phosphate dehydrogenase (Homo sapiens, UniProt P04406)
[30] = molecular target: Alkaline phosphatase, placental type (Homo sapiens, UniProt P05187); test: PLAP enzyme inhibitors, confirmation, biochemical, luminescence (AID 1512); format: functional
[31] = molecular target: T7, Alkaline phosphatase, tissue-nonspecific isozyme (Homo sapiens, UniProt P05186); test: human TNAP enzyme inhibitors, SAR follow-up, biochemical, luminescent, dose response (AID 1056)
T7 sequence (P05186 whole entry): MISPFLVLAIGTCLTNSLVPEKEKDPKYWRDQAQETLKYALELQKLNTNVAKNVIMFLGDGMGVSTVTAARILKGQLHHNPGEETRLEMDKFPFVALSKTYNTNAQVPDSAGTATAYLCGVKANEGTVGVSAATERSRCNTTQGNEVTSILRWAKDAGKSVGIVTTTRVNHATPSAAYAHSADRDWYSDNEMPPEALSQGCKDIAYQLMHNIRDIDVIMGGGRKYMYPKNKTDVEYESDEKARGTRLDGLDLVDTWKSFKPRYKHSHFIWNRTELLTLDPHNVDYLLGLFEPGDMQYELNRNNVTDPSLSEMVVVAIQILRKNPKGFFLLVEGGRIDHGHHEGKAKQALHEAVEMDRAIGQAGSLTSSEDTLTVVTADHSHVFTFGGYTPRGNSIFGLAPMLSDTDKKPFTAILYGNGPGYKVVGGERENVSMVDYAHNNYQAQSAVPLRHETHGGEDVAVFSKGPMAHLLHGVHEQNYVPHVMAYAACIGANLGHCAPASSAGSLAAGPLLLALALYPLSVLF

T1 sequence (P51452 whole entry): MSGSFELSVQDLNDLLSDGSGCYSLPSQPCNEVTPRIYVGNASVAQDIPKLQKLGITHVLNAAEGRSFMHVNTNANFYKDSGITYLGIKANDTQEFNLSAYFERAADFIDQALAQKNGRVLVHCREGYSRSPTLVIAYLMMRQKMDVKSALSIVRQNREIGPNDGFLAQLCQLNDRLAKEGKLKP
Chain of Glyceraldehyde-3-phosphate dehydrogenase (P04406 whole entry): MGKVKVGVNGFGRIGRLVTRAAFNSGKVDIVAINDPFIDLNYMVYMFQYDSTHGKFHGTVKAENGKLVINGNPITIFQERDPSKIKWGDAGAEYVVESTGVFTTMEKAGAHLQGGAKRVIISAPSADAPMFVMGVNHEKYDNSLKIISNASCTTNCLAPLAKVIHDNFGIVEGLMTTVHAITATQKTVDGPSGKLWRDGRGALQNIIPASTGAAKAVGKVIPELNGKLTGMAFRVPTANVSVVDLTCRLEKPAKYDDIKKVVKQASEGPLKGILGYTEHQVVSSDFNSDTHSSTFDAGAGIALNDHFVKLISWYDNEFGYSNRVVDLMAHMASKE
Chain of Alkaline phosphatase, placental type (P05187 whole entry): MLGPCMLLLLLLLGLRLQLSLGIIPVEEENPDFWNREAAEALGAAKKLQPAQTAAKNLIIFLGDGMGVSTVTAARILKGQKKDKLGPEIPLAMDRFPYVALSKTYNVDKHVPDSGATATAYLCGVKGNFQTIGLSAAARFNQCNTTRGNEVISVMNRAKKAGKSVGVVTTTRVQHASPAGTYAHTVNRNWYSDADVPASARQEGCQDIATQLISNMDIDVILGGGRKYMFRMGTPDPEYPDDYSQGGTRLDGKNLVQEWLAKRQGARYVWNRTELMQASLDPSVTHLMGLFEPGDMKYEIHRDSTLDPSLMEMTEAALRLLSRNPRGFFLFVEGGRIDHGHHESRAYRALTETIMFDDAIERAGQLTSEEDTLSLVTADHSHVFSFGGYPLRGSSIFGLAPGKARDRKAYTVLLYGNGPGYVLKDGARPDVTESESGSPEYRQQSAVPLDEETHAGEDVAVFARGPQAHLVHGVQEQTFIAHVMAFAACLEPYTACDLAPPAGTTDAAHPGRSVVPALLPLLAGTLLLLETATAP
Chain of CAAX prenyl protease 2 (Q03530 whole entry): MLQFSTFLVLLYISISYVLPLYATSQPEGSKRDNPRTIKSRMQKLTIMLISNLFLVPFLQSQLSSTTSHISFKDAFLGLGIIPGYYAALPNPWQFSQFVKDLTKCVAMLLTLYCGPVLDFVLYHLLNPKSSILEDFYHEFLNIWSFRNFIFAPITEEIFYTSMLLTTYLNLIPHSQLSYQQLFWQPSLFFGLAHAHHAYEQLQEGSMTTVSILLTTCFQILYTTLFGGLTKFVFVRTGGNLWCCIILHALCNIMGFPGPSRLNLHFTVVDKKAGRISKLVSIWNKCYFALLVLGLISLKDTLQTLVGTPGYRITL
Chain of Ion channel NompC (Q7T1G6 whole entry): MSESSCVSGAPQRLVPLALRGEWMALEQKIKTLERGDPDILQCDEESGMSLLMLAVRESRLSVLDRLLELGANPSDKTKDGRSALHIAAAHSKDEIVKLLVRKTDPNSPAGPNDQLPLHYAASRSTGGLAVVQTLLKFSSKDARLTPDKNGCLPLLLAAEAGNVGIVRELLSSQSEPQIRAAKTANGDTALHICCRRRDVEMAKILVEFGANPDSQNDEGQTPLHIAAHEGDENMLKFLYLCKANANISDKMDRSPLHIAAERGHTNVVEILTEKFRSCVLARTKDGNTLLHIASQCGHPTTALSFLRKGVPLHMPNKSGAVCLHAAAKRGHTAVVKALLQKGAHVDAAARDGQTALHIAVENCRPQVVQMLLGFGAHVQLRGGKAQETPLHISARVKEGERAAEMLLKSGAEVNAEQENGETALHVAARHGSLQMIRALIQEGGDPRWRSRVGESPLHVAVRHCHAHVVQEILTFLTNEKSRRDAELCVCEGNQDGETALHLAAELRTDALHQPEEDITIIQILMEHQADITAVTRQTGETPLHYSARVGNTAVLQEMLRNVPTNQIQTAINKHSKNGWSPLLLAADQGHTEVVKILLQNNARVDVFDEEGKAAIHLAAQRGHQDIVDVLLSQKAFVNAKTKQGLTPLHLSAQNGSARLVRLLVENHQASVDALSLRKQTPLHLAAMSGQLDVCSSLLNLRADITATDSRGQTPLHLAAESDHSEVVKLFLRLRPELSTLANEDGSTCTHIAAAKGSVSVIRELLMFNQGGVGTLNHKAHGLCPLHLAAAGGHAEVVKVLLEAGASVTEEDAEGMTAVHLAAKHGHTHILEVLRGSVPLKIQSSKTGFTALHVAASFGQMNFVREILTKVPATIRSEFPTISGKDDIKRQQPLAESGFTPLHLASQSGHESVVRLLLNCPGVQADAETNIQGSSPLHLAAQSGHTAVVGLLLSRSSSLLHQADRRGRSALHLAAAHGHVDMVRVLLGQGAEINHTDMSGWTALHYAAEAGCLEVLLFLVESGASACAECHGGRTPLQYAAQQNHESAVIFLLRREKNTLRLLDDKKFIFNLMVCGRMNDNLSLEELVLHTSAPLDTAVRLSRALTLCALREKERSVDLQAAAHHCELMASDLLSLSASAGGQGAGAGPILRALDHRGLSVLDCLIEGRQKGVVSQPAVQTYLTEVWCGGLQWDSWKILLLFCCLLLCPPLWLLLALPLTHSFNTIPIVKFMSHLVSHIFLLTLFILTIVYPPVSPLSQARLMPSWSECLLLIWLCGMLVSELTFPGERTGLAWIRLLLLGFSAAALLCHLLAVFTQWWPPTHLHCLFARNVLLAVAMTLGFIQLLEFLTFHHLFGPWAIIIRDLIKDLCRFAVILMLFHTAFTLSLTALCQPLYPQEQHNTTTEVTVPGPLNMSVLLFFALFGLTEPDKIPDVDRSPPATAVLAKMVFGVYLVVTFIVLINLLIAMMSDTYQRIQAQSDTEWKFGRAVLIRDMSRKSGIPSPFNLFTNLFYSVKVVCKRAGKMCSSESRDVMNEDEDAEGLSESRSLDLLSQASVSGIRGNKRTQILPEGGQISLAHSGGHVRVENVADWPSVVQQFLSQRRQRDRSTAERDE
Chain of Paired box protein Pax-8 (Q06710 whole entry): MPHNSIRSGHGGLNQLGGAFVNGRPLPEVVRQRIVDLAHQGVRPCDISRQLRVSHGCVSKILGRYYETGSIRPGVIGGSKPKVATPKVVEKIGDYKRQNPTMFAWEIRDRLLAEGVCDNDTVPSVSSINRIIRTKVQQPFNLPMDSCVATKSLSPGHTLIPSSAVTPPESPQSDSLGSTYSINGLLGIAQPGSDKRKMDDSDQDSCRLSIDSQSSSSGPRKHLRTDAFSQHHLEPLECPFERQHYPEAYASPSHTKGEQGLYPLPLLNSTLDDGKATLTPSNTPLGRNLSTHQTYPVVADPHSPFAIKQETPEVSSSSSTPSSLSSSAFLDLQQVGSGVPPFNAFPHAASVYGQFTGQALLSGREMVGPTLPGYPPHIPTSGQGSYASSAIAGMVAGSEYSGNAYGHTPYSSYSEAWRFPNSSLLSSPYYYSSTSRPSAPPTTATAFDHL
Chain of Beta Lactamase (Q932Y6 whole entry): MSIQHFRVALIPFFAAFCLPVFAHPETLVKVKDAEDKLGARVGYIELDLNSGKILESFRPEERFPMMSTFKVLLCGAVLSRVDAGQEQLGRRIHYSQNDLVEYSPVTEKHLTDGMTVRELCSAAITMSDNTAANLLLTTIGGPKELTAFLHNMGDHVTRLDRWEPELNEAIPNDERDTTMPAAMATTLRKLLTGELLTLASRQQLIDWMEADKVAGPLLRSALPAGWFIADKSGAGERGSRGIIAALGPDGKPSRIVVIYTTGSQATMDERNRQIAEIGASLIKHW
Chain of Type-1 angiotensin II receptor (P30556 whole entry, the tested form may be a part): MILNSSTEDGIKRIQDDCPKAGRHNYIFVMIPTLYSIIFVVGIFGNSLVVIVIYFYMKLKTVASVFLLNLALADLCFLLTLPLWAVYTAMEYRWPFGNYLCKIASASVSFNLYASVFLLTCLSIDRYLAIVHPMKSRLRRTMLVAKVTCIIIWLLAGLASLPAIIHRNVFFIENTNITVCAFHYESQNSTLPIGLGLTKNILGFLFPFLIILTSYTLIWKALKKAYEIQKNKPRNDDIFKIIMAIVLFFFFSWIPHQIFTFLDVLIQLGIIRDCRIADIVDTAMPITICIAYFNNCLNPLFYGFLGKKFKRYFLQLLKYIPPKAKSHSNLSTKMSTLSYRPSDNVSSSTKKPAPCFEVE

## CCn1cc(/C=C(\NC(=O)c2ccccc2F)C(=O)N2CCCC2)c2ccccc21
[1]
  AC50: 3.91 µM (active)

## OC1c2cc(Br)ccc2N=C2CCCN21 (stereo unspecified)
[2]
  CC50: 71.5 µM (active)
[3]
  CC50: 35.5 µM (active)
[4]
  CC50: > 80 µM (active)
[5]
  IC50: 14.5 µM (active)
[6]
  IC50: 25.7 µM (active)
[7]
  IC50: > 25 µM (active)
[8]
  EC50: 3.78 µM (active)
[9]
  EC50: > 60 µM (not active)

## NS(=O)(=O)c1ccc(NC(=S)NC2CC2)cc1
[10]
  IC50: 12.5 µM (active)
[11]
  IC50: > 99 µM (inactive)
[12]
  IC50: 0.588 µM (active)
[13]
  IC50: > 100 µM (inactive)
[14]
  IC50: > 100 µM (inactive)
[15]
  IC50: 27.9 µM (active)
[16]
  IC50: 5.38 µM (active)
[17]
  IC50: > 99 µM (inactive)

## CC1=CC(=O)C(C(C)C)=C/C1=N/OS(=O)(=O)c1ccccc1
[18]
  EC50: > 29.9 µM (not active)
[19]
  CC50: 9.69 µM (active)
[20]
  EC50: > 29.9 µM (not active)
[21]
  EC50: 4.19 µM (active)
[22]
  EC50: > 100 µM (inactive)
[23]
  AC50: 3.61 µM (active)
[24]
  IC50: 12 µM (active)
[25]
  AC50: 1.06 µM (active)
[26]
  IC50: 7.38 µM (active)
[27]
  IC50: 49.8 µM (inactive)
[28]
  AC50: 6.97 µM (active)

## O=C(O)c1cc(-c2ccccc2Cl)n[nH]1
[29]
  IC50: > 100 µM (not active)
[30]
  IC50: > 100 µM (inactive)
[31]
  IC50: 0.584 µM (active)
